Source: ChEMBL document CHEMBL3804756 (J Med Chem, 2016)

How the values were obtained:
[1] = molecular target: T1, Histamine H4 receptor (Homo sapiens, UniProt Q9H3N8); assay: Displacement of [3H]UR-PI294 from human histamine H4 receptor expressed in sf9 cell membrane co-expressing mammalian Galphai2 and Gbeta1gamma2 incubated for 60 mins by liquid scintillation counting method
[2] = molecular target: T1, Histamine H4 receptor; assay: Agonist activity at human SF-His6-tagged histamine H4 receptor expressed in HEK293 cells assessed as inhibition of forskolin-stimulated response incubated for 5 hrs by luciferase reporter gene assay; assay type: cell-based
[3] = molecular target: T2, Histamine H1 receptor (Homo sapiens, UniProt P35367); assay: Displacement of [3H]mepyramine from human histamine H1 receptor expressed in sf9 cell membrane co-expressing RGS4 incubated for 60 mins by liquid scintillation counting method
T2 sequence (P35367 whole entry): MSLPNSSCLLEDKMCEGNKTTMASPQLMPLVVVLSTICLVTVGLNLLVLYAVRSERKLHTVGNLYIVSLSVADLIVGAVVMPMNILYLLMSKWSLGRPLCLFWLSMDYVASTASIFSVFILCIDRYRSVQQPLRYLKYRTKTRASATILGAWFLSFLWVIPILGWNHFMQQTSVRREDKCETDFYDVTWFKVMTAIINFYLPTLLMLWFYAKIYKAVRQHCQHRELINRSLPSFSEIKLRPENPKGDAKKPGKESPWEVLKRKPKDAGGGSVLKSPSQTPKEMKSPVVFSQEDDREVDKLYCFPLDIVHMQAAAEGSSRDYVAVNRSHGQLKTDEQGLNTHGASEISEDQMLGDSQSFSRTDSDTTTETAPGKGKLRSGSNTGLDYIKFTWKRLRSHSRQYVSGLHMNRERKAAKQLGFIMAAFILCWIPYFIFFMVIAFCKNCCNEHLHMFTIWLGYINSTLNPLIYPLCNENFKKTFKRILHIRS

[4] = molecular target: T3, Histamine H2 receptor (Homo sapiens, UniProt P25021); assay: Intrinsic activity at human histamine H2 receptor expressed in sf9 cell membrane co-expressing Gsalphas at 10 uM incubated for 90 mins by [35S]GTPgammaS binding assay relative to histamine; assay type: functional
T3 sequence (P25021 whole entry): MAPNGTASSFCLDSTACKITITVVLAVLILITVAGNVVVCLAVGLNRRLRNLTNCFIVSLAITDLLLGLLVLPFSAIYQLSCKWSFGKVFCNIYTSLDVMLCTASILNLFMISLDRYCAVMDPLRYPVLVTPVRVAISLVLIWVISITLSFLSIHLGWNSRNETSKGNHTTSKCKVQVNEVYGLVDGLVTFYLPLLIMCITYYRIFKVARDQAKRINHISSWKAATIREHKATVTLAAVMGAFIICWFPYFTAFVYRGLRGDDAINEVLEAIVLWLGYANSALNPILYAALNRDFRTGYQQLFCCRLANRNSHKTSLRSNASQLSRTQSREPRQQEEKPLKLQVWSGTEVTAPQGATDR

[5] = molecular target: T4, Histamine H3 receptor (Homo sapiens, UniProt Q9Y5N1); assay: Intrinsic activity at human histamine H3 receptor expressed in sf9 cell membrane co-expressing mammalian Galphai2 and Gbeta1gamma2 at 10 uM incubated for 90 mins by [35S]GTPgammaS binding assay relative to histamine; assay type: functional
T4 sequence (Q9Y5N1 whole entry): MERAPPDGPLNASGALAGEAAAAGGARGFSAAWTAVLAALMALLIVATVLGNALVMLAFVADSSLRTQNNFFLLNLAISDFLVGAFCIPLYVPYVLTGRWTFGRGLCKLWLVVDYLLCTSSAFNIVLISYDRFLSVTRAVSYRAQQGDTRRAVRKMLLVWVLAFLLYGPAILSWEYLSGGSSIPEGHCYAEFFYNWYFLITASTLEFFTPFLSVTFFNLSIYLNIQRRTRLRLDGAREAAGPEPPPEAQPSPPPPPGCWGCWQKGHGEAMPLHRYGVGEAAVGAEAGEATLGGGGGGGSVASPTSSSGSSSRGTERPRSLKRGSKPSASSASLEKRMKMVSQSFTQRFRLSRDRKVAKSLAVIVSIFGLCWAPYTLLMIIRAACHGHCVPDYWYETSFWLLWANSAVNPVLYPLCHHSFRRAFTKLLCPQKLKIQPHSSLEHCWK

[6] = molecular target: T3, Histamine H2 receptor; assay: Antagonist activity at human histamine H2 receptor expressed in sf9 cell membrane co-expressing Gsalphas assessed as inhibition of histamine-induced [35S]GTPgammaS binding incubated for 90 mins; assay type: functional
[7] = molecular target: T4, Histamine H3 receptor; assay: Antagonist activity at human histamine H3 receptor expressed in sf9 cell membrane co-expressing mammalian Galphai2 and Gbeta1gamma2 assessed as inhibition of histamine-induced [35S]GTPgammaS binding incubated for 90 mins; assay type: functional
[8] = molecular target: T4, Histamine H3 receptor; assay: Displacement of [3H]N-alpha-methylhistamine from human histamine H3 receptor expressed in sf9 cell membrane co-expressing mammalian Galphai2 and Gbeta1gamma2 incubated for 60 mins by liquid scintillation counting method
[9] = molecular target: T3, Histamine H2 receptor; assay: Displacement of [3H]tiotidine from human histamine H2 receptor expressed in sf9 cell membrane co-expressing Gsalphas incubated for 60 mins by liquid scintillation counting method
[10] = molecular target: T5, Histamine H4 receptor (Mus musculus) (UniProt Q91ZY2); assay: Intrinsic activity at mouse SF-His6-tagged histamine H4 receptor expressed in HEK293 cells assessed as inhibition of forskolin-stimulated response incubated for 5 hrs by luciferase reporter gene assay relative to histamine; assay type: cell-based
T5 sequence (whole entry): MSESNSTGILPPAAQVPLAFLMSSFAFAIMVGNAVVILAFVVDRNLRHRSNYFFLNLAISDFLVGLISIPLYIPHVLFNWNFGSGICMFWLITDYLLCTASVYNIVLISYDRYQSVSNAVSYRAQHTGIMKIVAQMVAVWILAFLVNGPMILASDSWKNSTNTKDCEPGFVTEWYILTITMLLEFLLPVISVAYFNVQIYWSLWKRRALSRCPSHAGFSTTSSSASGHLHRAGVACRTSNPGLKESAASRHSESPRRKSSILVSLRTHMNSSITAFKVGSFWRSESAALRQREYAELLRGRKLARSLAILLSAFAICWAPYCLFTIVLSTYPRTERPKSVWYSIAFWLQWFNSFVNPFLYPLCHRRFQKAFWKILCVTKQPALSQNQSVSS

[11] = molecular target: T6, Histamine H4 receptor (Mus musculus, UniProt Q91ZY2); assay: Agonist activity at mouse SF-His6-tagged histamine H4 receptor expressed in HEK293 cells assessed as inhibition of forskolin-stimulated response incubated for 5 hrs by luciferase reporter gene assay; assay type: cell-based
T6 sequence (Q91ZY2 whole entry): T5 sequence (whole entry)

[12] = molecular target: T1, Histamine H4 receptor; assay: Agonist activity at human histamine H4 receptor expressed in sf9 cell membrane co-expressing mammalian Galphai2 and Gbeta1gamma2 incubated for 90 mins by [35S]GTPgammaS binding assay; assay type: functional
[13] = molecular target: T4, Histamine H3 receptor; assay: Agonist activity at human histamine H3 receptor expressed in sf9 cell membrane co-expressing mammalian Galphai2 and Gbeta1gamma2 incubated for 90 mins by [35S]GTPgammaS binding assay; assay type: functional
[14] = molecular target: T3, Histamine H2 receptor; assay: Agonist activity at human histamine H2 receptor expressed in sf9 cell membrane co-expressing Gsalphas incubated for 90 mins by [35S]GTPgammaS binding assay; assay type: functional
[15] = molecular target: T4, Histamine H3 receptor; assay: Displacement of [3H]N-alpha-methylhistamine from human histamine H3 receptor expressed in human SK-N-MC cells incubated for 40 mins; assay type: cell-based
[16] = molecular target: T1, Histamine H4 receptor; assay: biochemical; assay type: cell-based, SK-N-MC
[17] = molecular target: T2, Histamine H1 receptor; assay: Antagonist activity at human histamine H1 receptor expressed in sf9 cell membrane co-expressing RGS4 assessed as inhibition of histamine-induced increase in 32Pi level preincubated for 2 mins followed by [gamma-32P]GTP addition measured after 20 mins by liquid scintillation counting method

T1 sequence (Q9H3N8 whole entry): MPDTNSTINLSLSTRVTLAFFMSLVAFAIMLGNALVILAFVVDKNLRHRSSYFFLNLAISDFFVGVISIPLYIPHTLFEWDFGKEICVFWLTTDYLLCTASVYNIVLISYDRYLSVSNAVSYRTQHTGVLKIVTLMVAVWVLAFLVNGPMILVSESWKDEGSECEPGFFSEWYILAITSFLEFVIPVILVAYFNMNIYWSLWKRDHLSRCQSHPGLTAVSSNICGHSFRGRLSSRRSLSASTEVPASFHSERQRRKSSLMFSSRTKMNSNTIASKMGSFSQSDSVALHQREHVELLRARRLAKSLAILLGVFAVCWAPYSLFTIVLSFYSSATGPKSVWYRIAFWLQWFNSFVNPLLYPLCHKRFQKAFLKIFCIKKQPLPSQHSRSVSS

Compound | Ki [1] | EC50 [2] | Ki [3] | Intrinsic activity [4] | Intrinsic activity [5] | Kb [6] | Kb [7] | Ki [8] | Ki [9] | Intrinsic activity [10] | EC50 [11] | EC50 [12] | EC50 [13] | EC50 [14] | Ki [15] | Ki [16] | Kb [17] | Ki ([3]; sf9)
N#C/N=C(/NCCSc1ccccc1)NC[C@@H]1CC[C@@H](c2c[nH]cn2)C1 | 1050 nM | 500 nM | 7910 nM | 0 | -0.21 | > 10000 nM | 143 nM | 590 nM | 9820 nM | 0.29 | 589 nM |  |  |  |  |  |  | 
N#C/N=C(/NCCSc1ccccc1)NC[C@H]1CC[C@@H](c2c[nH]cn2)C1 | 290 nM |  | 6780 nM | 0 | -0.34 | > 10000 nM | 528 nM | 745 nM | 7360 nM |  |  | 549 nM |  |  |  |  |  | 
CN/C(=N\C#N)NC[C@@H]1CC[C@@H](c2c[nH]cn2)C1 | 870 nM |  | > 10000 nM | 0 | 0.29 | > 10000 nM |  | 5680 nM | > 10000 nM | 0.96 | 3630 nM | 1100 nM | 9200 nM |  |  |  |  | 
CN/C(=N\C#N)NC[C@H]1CC[C@@H](c2c[nH]cn2)C1 | 3500 nM |  | > 10000 nM | 0 | -0.14 | > 10000 nM | 2810 nM | 9500 nM | > 10000 nM |  |  | 2680 nM |  |  |  |  |  | 
CN/C(=N\C#N)NC[C@@H]1CC[C@H](c2c[nH]cn2)C1 (racemic) | 155 nM |  | > 10000 nM |  |  |  |  | 860 nM |  |  |  | 111 nM | 547 nM |  |  |  |  | 
CN/C(=N\C#N)NC[C@H]1CC[C@H](c2c[nH]cn2)C1 (racemic) | 240 nM |  | > 10000 nM |  |  |  |  | 830 nM |  |  |  | 206 nM | 370 nM |  |  |  |  | 
NC[C@H]1CC[C@H](c2c[nH]cn2)C1 (racemic) |  |  | > 10000 nM | 0 | 0 |  | 103 nM |  |  |  |  | 1710 nM |  | > 10000 nM |  |  |  | 
NCCCCc1c[nH]cn1 [IMBUTAMINE] |  |  |  |  |  |  |  |  |  |  |  |  |  |  | 4.3 nM | 12.7 nM |  | 
N#C/N=C(/NCCSc1ccccc1)NC[C@@H]1CC[C@H](c2c[nH]cn2)C1 (racemic) |  |  |  | 0 | -0.34 | > 10000 nM | 162 nM |  |  |  |  |  |  |  |  |  | 3800 nM | 
N#C/N=C(/NCCSc1ccccc1)NC[C@H]1CC[C@H](c2c[nH]cn2)C1 [listing 1 of 2 here] |  |  |  | 0 | 0 | > 10000 nM | 1150 nM |  |  | 0.67 |  |  |  |  |  |  |  | 
NC[C@@H]1CC[C@H](c2c[nH]cn2)C1 (racemic) |  |  | > 10000 nM | 0.19 | 0 |  | 62 nM |  |  |  |  | 150 nM |  | > 10000 nM |  |  |  | 
N#C/N=C(/NCCSc1ccccc1)NC[C@H]1CC[C@H](c2c[nH]cn2)C1 (racemic) |  |  |  | 0 | -0.4 | > 10000 nM | 246 nM |  |  |  |  |  |  |  |  |  | 6000 nM | 
N#C/N=C(/NCCSc1ccccc1)NC[C@H]1CC[C@H](c2c[nH]cn2)C1 [listing 2 of 2 here] | 22 nM | 25 nM | 6520 nM |  |  |  |  | 2130 nM | 10300 nM |  | 166 nM | 11 nM |  |  |  |  |  | 
CN/C(=N\C#N)NC[C@H]1CC[C@H](c2c[nH]cn2)C1 [listing 1 of 2 here] | 98 nM | 63 nM |  |  |  |  |  | 958 nM | > 10000 nM |  | 538 nM | 100 nM | 994 nM |  |  |  |  | > 10000 nM
CN/C(=N\C#N)NC[C@@H]1CC[C@H](c2c[nH]cn2)C1 | 120 nM |  |  |  |  |  |  | 480 nM | > 10000 nM |  |  | 119 nM | 212 nM |  |  |  |  | > 10000 nM
N#C/N=C(\NC[C@H]1CC[C@H](c2c[nH]cn2)C1)NC1CC1 (racemic) |  |  | > 10000 nM | 0 | 0.36 | > 10000 nM |  |  |  |  |  | 230 nM | > 10000 nM |  |  |  |  | 
N#C/N=C(/NCCSc1ccccc1)NC[C@@H]1CC[C@H](c2c[nH]cn2)C1 | 180 nM |  | 3050 nM |  |  |  |  | 870 nM | 7250 nM |  |  | 293 nM |  |  |  |  |  | 
CN/C(=N\C#N)NC[C@H]1CC[C@H](c2c[nH]cn2)C1 [listing 2 of 2 here] |  |  |  | 0 | 0.59 | > 10000 nM |  |  |  | 0.96 |  |  |  |  |  |  |  | 
